The values that follow come from patent US6921764B2, “Thieno-pyrimidin-4-one AMPA antagonists” (Pfizer Inc., priority 1997, dated 2005).

The subject of data set [1] is rat global ischemia models. Particulars: reported in literature; cited from earlier work.
Data set [2] concerns global and focal ischemic damage. The following applies: focal and global ischemia models; reported in literature; cited from earlier work.

What is called melting point is the temperature, or range, at which the solid turns liquid. `Cl.O=c1c2cc(F)ccc2nc(CNc2ccccn2)n1-c1ccccc1Cl` showed a melting point of 90 to 100 °C.
In the case of `O=c1c2cc(F)ccc2nc(CNCc2ccccc2F)n1-c1ccccc1Cl`, the melting point is 140 °C.
On the same count and under the same terms, under `O=c1c2sccc2nc(CNc2ccccc2F)n1-c1ccccc1Cl` [Example 17, 3-(2-Chloro-phenyl)-2-[(2-fluoro-phenylamino)-methyl]-3H-thieno[3,2-d]pyrimidin-4-one] stands 175 to 176 °C.
On the same count and under the same terms, under `O=c1c2cc(F)ccc2nc(CNc2ncccn2)n1-c1ccccc1Cl` stands 182 to 185 °C.
Same read-out and setting: as for `Cl.O=c1c2sccc2nc(CNc2cccc(CN3CCCC3)c2)n1-c1ccccc1Cl`, the figure is 148 to 151 °C; as for `N#Cc1cccc(NCc2nc3ccc(F)cc3c(=O)n2-c2ccccc2Cl)c1`, 225 to 228 °C.
`O=c1c2cc(F)ccc2nc(CNc2cccc(CN3CCCC3)c2)n1-c1ccccc1Cl` [Example 12, 3-(2-Chloro-phenyl)-6-fluoro-2-[(3-pyrrolidin-1-ylmethyl-phenylamino)-methyl]-3H-quinazolin-4-one]: the melting point fell in the range of 105 to 110 °C.
As for `CC1=NN=C(c2ccc(N)cc2)c2cc3c(cc2C1)OCO3` [GKYI 52466], in data set [1], the “neuroprotection in rat global ischemia models” value is reported as “effective neuroprotective agent”.
Regarding `N#Cc1ccccc1NCc1nc2ccc(F)cc2c(=O)n1-c1cccnc1Cl`, the melting point lay in the range of 183 to 187 °C.
Same read-out and setting: as for `Cc1cccc(NCc2nc3ccc(F)cc3c(=O)n2-c2cccnc2Cl)n1`, the figure is 190 to 195 °C; as for `N#Cc1cccnc1NCc1nc2ccc(F)cc2c(=O)n1-c1ccccc1Cl`, 145 to 150 °C.
On to `NS(=O)(=O)c1cccc2c1c([N+](=O)[O-])cc1nc(O)c(O)nc12` [NBOX, 2,3-dihydroxy-6-nitro-7-sulfamoylbenzo[f-]quinoxaline], for which, in data set [2], the “prevention of global and focal ischemic damage” value is “effective in preventing global and focal ischemic damage”.
In the case of `O=c1c2cc(F)ccc2nc(CNc2ccccc2F)n1-c1cccnc1Cl`, the melting point is 180 to 182 °C.
